Data on 16 molecules can be found in patent publication US4022962A, “Carbamylguanidine antimicrobial compounds” (Cooper Laboratories, Inc., priority 1975, dated 1977).

Values after ≈ are worked out from the molar mass of the structure shown. Where a name gives a salt, the structure may show the parent alone.

One series deals with S. Mutans. Briefly: quantitative serial dilution test, minimal inhibitory concentration. In kind it is cell-based. Particulars: Streptococcus mutans, brain-heart infusion broth, half strength, 37° C., 36 hours. On the procedure:
A quantitative serial dilution test may also be performed by the following procedure.
A 20 mg/ml solution of the compound to be tested is prepared in a standard brain-heart infusion broth medium which has been diluted with water to one-half standard strength. Serial dilutions are prepared by adding 1 ml of the solution to a test tube containing 9 ml of medium. Five milliliters of the resulting solution are then added to another test tube containing 5 ml of the medium. The resulting solution is then again diluted by the same procedure. Ordinarily one tenfold dilution and four twofold dilutions are made. The procedure can be continued if more dilute solutions are required. Each of the series of tubes containing solutions of the compounds to be assayed is inoculated with two drops of a heavy culture of the chosen microorganisms in the brain-heart infusion broth. The tubes are incubated at 37° C. for 36 hours and the most dilute solution showing no microbial growth is noted. The concentration of this solution is reported as the minimal inhibitory concentration (MIC).
The minimum inhibitory concentration of a number of the compounds of this invention with respect to the microorganism S. Mutans were determined by the procedure described above. Chlorhexidine diacetate a commercially successful antimicrobial was used as a control.

The test system of the next series is mice. Briefly: acute oral toxicity in mice. The series is classed as in vivo. The settings on record: 8 gms/Kg orally. On the procedure: Acute oral toxicity of the compounds of this invention is determined in mice by the following procedure. The mice are fasted overnight, then formed into groups of 10 for testing. The animals in each group are fed a chosen dose and the dose is varied from group to group to cover a range of doses. The groups are then observed for a period of five days and the number of dead animals in each group is noted each day.

Another series concerns dental plaque. The settings on record: cited from earlier work.
The conditions of series [1]: when swallowed; cited from earlier work.
For series [2] the following is noted: in vivo; cited from earlier work.
The conditions of series [3]: at the prevailing pH of the mouth; cited from earlier work.
Series [4] in a line: adsorption to extracted enamel tooth surfaces, spectrophotometric. More on the design: species or system human. Particulars: after no more was removed; fresh portions of the solutions. Here is the method: Absorption of the compounds of this invention to extracted, non-carious, unprepared enamel tooth surfaces was investigated by the following procedure. Extracted human teeth, having their roots coated with wax so that only the enamel crowns were exposed, were immersed in 10 ml portions of stirred aqueous solutions of the test compound having a concentration of 10 micrograms/milliliter. After 10 minutes, the teeth were removed and the amount of test compound removed from the solution by adsorption was determined spectrophotometrically. […] The adsorption of the compounds of this invention was compared with that of chlorhexidine and found to be substantially greater. […] After no more of the test compounds was removed from the solution by adsorption, the teeth were immersed in fresh portions of the solutions.

Regarding `N=C(NCCCCNC(=N)NC(=O)Nc1ccc(Cl)cc1)NC(=O)Nc1ccc(Cl)cc1` [1,4-bis(4-chlorophenylcarbamylguanidino)butane], it took 0.625 µg/mL (≈ 1.3 µM) to inhibit growth in the series with S. Mutans (MIC).

Take `N=C(NCCCCCNC(=N)NC(=O)Nc1ccc(Cl)cc1)NC(=O)Nc1ccc(Cl)cc1` [1,5-bis(4-chlorophenylcarbamylguanidino)pentane monoacetate]: in the series on S. Mutans, the lowest concentration to inhibit growth (MIC) was 0.078 µg/mL.

`N=C(NC(=O)NCCCCCCNC(=O)NC(=N)Nc1ccc(Cl)cc1)Nc1ccc(Cl)cc1` [1,6-Bis(p-chlorophenylamidinoureido)hexane]: it took 2.5 µg/mL (≈ 4.93 µM) to inhibit growth against S. Mutans (MIC).

With `N=C(NCCCCCCNC(=N)NC(=O)Nc1ccc(Cl)cc1)NC(=O)Nc1ccc(Cl)cc1` [1,6-Bis-(p-chlorophenylcarbamylguanidino)hexane], the acute oral toxicity entry in the series on mice is given as “essentially atoxic”.

As for `N=C(NCCCCCCNC(=N)NC(=O)Nc1ccccc1Cl)NC(=O)Nc1ccccc1Cl` [1,6-bis(2-chlorophenylcarbamylguanidino)hexane diacetate], in the series on S. Mutans, the MIC – broadly, the lowest concentration found to suppress growth – was 0.312 µg/mL.

Turning to `CCCCC(CC)CNC(=O)NC(=N)NCCCCCCNC(=N)NC(=O)NCC(CC)CCCC` (centres unmarked) [1,6-bis(2-ethylhexylcarbamylguanidino)hexane], the lowest concentration to inhibit growth in the series with S. Mutans (MIC) was 0.625 µg/mL (≈ 1.22 µM).

Turning to `N=C(NCCCCCCNC(=N)NC(=O)Nc1cccc(Cl)c1)NC(=O)Nc1cccc(Cl)c1` [1,6-bis(3-chlorophenylcarbamylguanidino)hexane diacetate], the MIC in the series on S. Mutans came out at 0.078 µg/mL.

For `N=C(NCCCCCCNC(=N)NC(=O)Nc1cccc(C(F)(F)F)c1)NC(=O)Nc1cccc(C(F)(F)F)c1` [1,6-bis(3-trifluoromethylphenylcarbamylguanidino)hexane dihydrochloride], the MIC against S. Mutans is 0.312 µg/mL. This MIC lies about 4-fold higher than the previous one.

The molecule `N=C(NCCCCCCNC(=N)NC(=O)Nc1ccc(Br)cc1)NC(=O)Nc1ccc(Br)cc1` [1,6-bis(4-bromophenylcarbamylguanidino)hexane diacetate] gave an MIC with S. Mutans of 0.312 µg/mL.

As to `N=C(NCCCCCCNC(=N)NC(=O)Nc1ccc(Cl)cc1)NC(=O)Nc1ccc(Cl)cc1` [1,6-bis(4-chlorophenylcarbamylguanidino)hexane diacetate], it took 0.078 µg/mL to inhibit growth against S. Mutans (MIC).

For `N=C(NCCCCCCNC(=N)NC(=O)Nc1ccc(F)cc1)NC(=O)Nc1ccc(F)cc1` [1,6-bis(4-fluorophenylcarbamylguanidino)hexane diacetate], in the series with S. Mutans, the MIC amounted to 0.156 µg/mL.

In the case of `N=C(NCCCCCCNC(=N)NC(=O)Nc1ccccc1)NC(=O)Nc1ccccc1` [1,6-bis(phenylcarbamylguanidino)hexane], the MIC against S. Mutans stood at 0.625 µg/mL (≈ 1.43 µM).

As to `N=C(NCCCCCCCNC(=N)NC(=O)Nc1ccc(Cl)cc1)NC(=O)Nc1ccc(Cl)cc1` [1,7-bis(4-chlorophenylcarbamylguanidino)heptane dihydrochloride], the MIC in the series with S. Mutans is 0.312 µg/mL. Against the preceding molecule, the MIC is about 2-fold lower.

On to `CCCCC(CC)CNC(=N)NC(=N)NCCCCCCNC(=N)NC(=N)NCC(CC)CCCC` (centres unmarked) [alexidine, 1,6-bis(2-ethylhexylbiguanidino)hexane], for which, in the series on dental plaque, the clinical antiplaque effect entry is recorded as “clinically effected antiplaque agents”. Moreover, the “adsorption to gastrointestinal mucosa” value in series [1] is recorded as “adsorbed to the gastrointestinal mucosa”. The “local irritation of the oral mucosa and tongue” value in series [2] was “produce local irritation of the oral mucosa and tongue”. Further, the ionization state result in series [3] is listed as “almost entirely cationic”.

In the series on S. Mutans, `N=C(NCCCCCCNC(=N)NC(=N)Nc1ccc(Cl)cc1)NC(=N)Nc1ccc(Cl)cc1` [chlorhexidine diacetate, reference compound] displayed an MIC of 0.078 µg/mL.

On to `[H]/N=C(\N/C(=N/[H])NCCCCCCNC(=N)NC(=N)Nc1ccc(Cl)cc1)Nc1ccc(Cl)cc1` [chlorhexidine, 1,6-bis-(p-chlorophenylbiguanidino)hexane], for which the “further adsorption from fresh portions of solution” value in series [4] is listed as “No further adsorption”. Besides, in the series on dental plaque, the clinical antiplaque effect entry is recorded as “clinically effected antiplaque agents”. Also, the “adsorption to gastrointestinal mucosa” value in series [1] is “adsorbed to the gastrointestinal mucosa”. Also, the “local irritation of the oral mucosa and tongue” value in series [2] is “produce local irritation of the oral mucosa and tongue”. Also, in series [3], the ionization state result is “almost entirely cationic”.
